From PubChem BioAssay (NCI)
Several values for one entry are separate records, joined by “and”; a condition that tells them apart may be missing. Equal entries are not always repeated.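 1) Cells in 96-well plates. 2) Compound, 48 h, 5 concentrations. 3) Linear interpolation between surrounding doses. 4) Unreached endpoint = highest concentration. GI50: concentration for 50% inhibition of growth. Definition used: TGI = concentration required for complete inhibition of growth.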

Assays:
Assay in all cases: NCI tumour cell line growth inhibition, 48 h
[1] = test system: COLO 205 colon
[2] = test system: RXF 393 renal
[3] = test system: U251 CNS
[4] = test system: SK-OV-3 ovarian
[5] = test system: SNB-19 CNS
[6] = test system: HT29 colon
[7] = test system: LOX IMVI melanoma
[8] = test system: NCI-H522 lung
[9] = test system: A498 renal
[10] = test system: UACC-257 melanoma

| SMILES | TGI [1] | TGI [2] | TGI [3] | TGI [4] | TGI [5] | TGI [6] | TGI [7] | TGI [8] | TGI [9] | TGI [10] | GI50 [1] | GI50 [2] | GI50 [3] | GI50 [10] | GI50 [4] | GI50 [5] | GI50 [6] | GI50 [7] | GI50 [8] | GI50 [9] |
| --- | --- | --- | --- | --- | --- | --- | --- | --- | --- | --- | --- | --- | --- | --- | --- | --- | --- | --- | --- | --- |
| Cc1cc(=O)oc2cc(OCc3nc4ccccc4c(=O)[nH]3)ccc12 | > 100 µM | > 100 µM | > 100 µM | > 100 µM | > 100 µM | > 100 µM | > 100 µM | > 100 µM | > 100 µM |  |  |  |  |  |  |  |  |  |  |  |
| Cc1ccc(/C=C2\CCCC\C2=N\O)cc1 | > 100 µM |  | > 100 µM | > 100 µM | > 100 µM | > 100 µM | > 100 µM |  | > 100 µM |  |  |  |  |  |  |  |  |  |  |  |
| O=C1CCCC1NC(=O)C(F)(F)F (configuration not stated) |  | > 100 µM | > 100 µM | > 100 µM | > 100 µM | > 100 µM |  | > 100 µM | > 100 µM | > 100 µM |  |  |  |  |  |  |  |  |  |  |
| CC(C)C[C@@H]1NC(=O)[C@@H]2CCCN2C(=O)[C@@H]2CCCN2C(=O)[C@H](CC(C)C)NC(=O)[C@H](CO)NC(=O)[C@H](CCCCN)NC(=O)[C@H]([C@H](C)O)NC(=O)[C@@H]2CCCC[C@@H](NC1=O)C(=O)N[C@@H](Cc1ccccc1)C(=O)N1CCC[C@H]1C(=O)N[C@@H](CC(=O)O)C(=O)NCC(=O)N[C@@H](CCCN=C(N)N)C(=O)N2 | > 50 µM | > 50 µM | > 50 µM | > 50 µM | > 50 µM | > 50 µM | > 50 µM | > 50 µM |  | > 50 µM | > 50 µM | > 50 µM | > 50 µM | > 50 µM | > 50 µM | > 50 µM | > 50 µM | > 50 µM | > 50 µM |  |
| O=C(/C=C/c1ccc(C(F)(F)F)cc1)c1ccc(Nc2nc(NCCO)nc(N3CCOCC3)n2)cc1 | 4.08 µM | 3.26 µM | 3.38 µM | > 100 µM |  | 4.51 µM | 3.11 µM | 5.04 µM | 12 µM | 17.8 µM | 2.09 µM | 1.63 µM | 1.63 µM | 3.98 µM | 3.82 µM |  | 2 µM | 1.67 µM | 1.85 µM | 1.4 µM |
| COc1ccc2c(c1)CC1c3c(cc4c(c3-2)OCO4)CCN1C (configuration not stated) | 30.9 µM |  | > 100 µM | 69.1 µM | > 100 µM | > 100 µM |  | 38.7 µM | 31.7 µM | 57.5 µM |  |  |  |  |  |  |  |  |  |  |
| C=CCCCCCC(O)C(O)C/C=C\C/C=C\CC (configuration not stated) | > 18.8 µM | > 18.8 µM | > 18.8 µM | > 18.8 µM | > 18.8 µM | > 18.8 µM | > 18.8 µM | > 18.8 µM |  | > 18.8 µM |  |  |  |  |  |  |  |  |  |  |
| CC12CC3CC(C1)CC(N=[N+]=[N-])(C3)C2 | > 100 µM |  | > 100 µM | > 100 µM | > 100 µM | > 100 µM | > 100 µM | > 100 µM | > 100 µM | > 100 µM |  |  |  |  |  |  |  |  |  |  |
| C[C@@H]1C[C@@]2(O[C@@H]2C)C(=O)O[C@@H]2CCN3CC=C(COC(=O)[C@]1(C)O)[C@H]23 | > 100 µM |  | > 100 µM | > 100 µM | > 100 µM | > 100 µM | > 100 µM | > 100 µM | > 100 µM | > 100 µM |  |  |  |  |  |  |  |  |  |  |
| Oc1c(N=Nc2ccccc2)c2ccccc2c2ccc3ccccc3c12 | > 100 µM | > 100 µM | > 100 µM | > 100 µM | > 100 µM | > 100 µM |  | > 100 µM | > 100 µM | > 100 µM |  |  |  |  |  |  |  |  |  |  |
| COc1cc([N+](=O)[O-])c(OC)cc1-c1nc2sc(Cl)cn2c1/C=N/NC(=N)N/N=C/c1c(-c2cc(OC)c([N+](=O)[O-])cc2OC)nc2sc(Cl)cn12 | 4.08 µM |  |  |  |  | > 100 µM |  |  | 3.13 µM |  | 1.89 µM |  |  |  |  |  | 3.78 µM |  |  | 1.7 µM |
| Clc1nc(Cl)c(Cc2ccccc2)c(Cl)n1 | 22.6 µM | 11.1 µM | 33.8 µM | 28.9 µM | 33.3 µM | 25.3 µM | > 100 µM | 3.04 µM |  |  |  |  |  |  |  |  |  |  |  |  |
| N#CN1CCC=C(c2cc3ccccc3[nH]2)C1 | > 448 µM | > 448 µM | > 448 µM | > 448 µM | > 448 µM | > 448 µM | > 448 µM | 298 µM |  | > 448 µM |  |  |  |  |  |  |  |  |  |  |
| O=C(NCP(=O)(O)O)c1cccnc1 | > 100 µM | > 100 µM | > 100 µM | > 100 µM | > 100 µM | > 100 µM | > 100 µM |  | > 100 µM | > 100 µM |  |  |  |  |  |  |  |  |  |  |
| CC1SC(=O)SC1C (configuration not stated) | > 100 µM |  | > 100 µM | > 100 µM | > 100 µM |  |  | > 100 µM |  | > 100 µM |  |  |  |  |  |  |  |  |  |  |
| COC(=O)[C@@H](C)C[C@H](Cc1ccccc1)NC(=O)c1csc([C@@H](C[C@H](C(C)C)N(C)C(=O)C2(NC(=O)[C@H]3CCCCN3C)CC2)OC(C)=O)n1 | 0.0644 µM |  | > 33.3 µM | < 0.00333 µM | > 33.3 µM | 7.65 µM | > 33.3 µM | 0.00491 µM |  |  | 0.00346 µM | 0.0216 µM | 0.00913 µM and 0.00333 µM |  | 0.0183 µM and < 0.00333 µM | 0.00824 µM and 0.00333 µM | 0.00351 µM and 0.00333 µM | 0.00947 µM and 0.00333 µM | 0.000537 µM | 0.00858 µM and < 0.00333 µM |
| C=C1CC[C@@H]2[C@](C)(COC(C)=O)[C@H](OC(C)=O)CC[C@@]2(C)[C@@H]1C/C=C1/C(=O)OC[C@H]1OC(C)=O | 11.4 µM | 4.13 µM | 19.3 µM | 36.3 µM | 24.5 µM |  | 2.85 µM | 3.63 µM | 27.5 µM | 19.9 µM | 3.37 µM | 1.95 µM | 6.09 µM | 6.2 µM | 19.1 µM | 10.8 µM |  | 1.42 µM | 1.52 µM | 14.4 µM |
| OCCNCCNc1c2ccccc2nc2oc3ccccc3c12 | 16.4 µM |  | 30.2 µM | 40.3 µM | 36.2 µM | 21.5 µM | 20.6 µM | 23.7 µM | 21.9 µM | 33.2 µM | 3.51 µM |  | 12.5 µM | 15.6 µM | 13.1 µM | 11.6 µM | 4 µM | 5.87 µM | 7.73 µM | 8.27 µM |
| Cc1nn(-c2nc3ccccc3[nH]2)c2c1C(c1ccc3c(c1)OCO3)CC(=O)N2 (configuration not stated) | 4.15 µM | 6.26 µM | 4.79 µM | 5.77 µM | > 100 µM | > 23.6 µM |  | 5.41 µM | 4.42 µM | 6.96 µM | 2.11 µM | 2.47 µM | 2.14 µM | 2.41 µM | 2.63 µM | 4.45 µM | 3.01 µM |  | 2.22 µM | 1.61 µM |
